Assay results taken from PubChem BioAssay AID1845209 (Molecular Pharmacology Branch, DTP, NCI, 2023).

Tested on: NCI-H211 tumor spheroids, viability percent test/control
Test: Anticancer human tumor NCI-H211 cell line growth inhibition;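 also: spheroids exposed to agents for seven days before readout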
Conditions: spheroids with HUVEC and MSC; for IC50: curve of first compound; for viability, T/C: stronger effect = lower value
In short: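 Complex tumor spheroids combined malignant cells with endothelial cells and mesenchymal stem cells. DNA-damaging drugs and DNA repair inhibitors were tested alone and in combination, at half-log dilutions down from clinical Cmax (top 10 microM if Cmax unknown), 0.25% DMSO final.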

[1] = second compound 1 µM, first compound 0.00949 µM
[2] = second compound 1 µM, first compound 0.03 µM
[3] = second compound 1 µM, first compound 0.0949 µM
[4] = second compound 1 µM, first compound 0.3 µM
[5] = second compound 1 µM, first compound 0.949 µM
[6] = second compound 1 µM, first compound 3 µM
[7] = second compound 3.16 µM, first compound 0.00949 µM
[8] = second compound 3.16 µM, first compound 0.03 µM
[9] = second compound 3.16 µM, first compound 0.0949 µM
[10] = second compound 3.16 µM, first compound 0.3 µM
[11] = second compound 3.16 µM, first compound 0.949 µM
[12] = second compound 3.16 µM, first compound 3 µM
[13] = second compound 10 µM, first compound 0.00949 µM
[14] = second compound 10 µM, first compound 0.03 µM
[15] = second compound 10 µM, first compound 0.0949 µM
[16] = second compound 10 µM, first compound 0.3 µM
[17] = second compound 10 µM, first compound 0.949 µM
[18] = second compound 10 µM, first compound 3 µM
[19] = second compound 31.6 µM, first compound 0.00949 µM
[20] = second compound 31.6 µM, first compound 0.03 µM
[21] = second compound 31.6 µM, first compound 0.0949 µM
[22] = second compound 31.6 µM, first compound 0.3 µM
[23] = second compound 31.6 µM, first compound 0.949 µM
[24] = second compound 31.6 µM, first compound 3 µM
[25] = second compound 100 µM, first compound 0.00949 µM
[26] = second compound 100 µM, first compound 0.03 µM
[27] = second compound 100 µM, first compound 0.0949 µM
[28] = second compound 100 µM, first compound 0.3 µM
[29] = second compound 100 µM, first compound 0.949 µM
[30] = second compound 100 µM, first compound 3 µM

Row | Compound | IC50 (second compound 1 µM) | IC50 (second compound 3.16 µM) | IC50 (second compound 10 µM) | IC50 (second compound 31.6 µM) | IC50 (second compound 100 µM) | viability, T/C [1] | viability, T/C [2] | viability, T/C [3] | viability, T/C [4] | viability, T/C [5] | viability, T/C [6] | viability, T/C [7] | viability, T/C [8] | viability, T/C [9] | viability, T/C [10] | viability, T/C [11] | viability, T/C [12] | viability, T/C [13] | viability, T/C [14] | viability, T/C [15] | other results
1 | CNCc1ccc(-c2cc(-c3nc(-c4ccc(S(=O)(=O)C(C)C)cc4)cnc3N)on2)cc1 + Cn1nnc2c(C(N)=O)ncn2c1=O | 11.5 nM | 19.7 nM | 16.8 nM | < 9.49 nM | < 9.49 nM | 53% | 35.3% | 6.53% | 1.07% | 0.07% | 0.11% | 71% | 37.9% | 7.5% | 0.64% | 0.13% | 0.1% | 66.9% | 32.9% | 6.3% | viability, T/C [16]: 0.72%; viability, T/C [17]: 0.13%; viability, T/C [18]: 0.13%; viability, T/C [19]: 34%; viability, T/C [20]: 9.23%; viability, T/C [21]: 2.14%; viability, T/C [22]: 1.16%; viability, T/C [23]: 0.14%; viability, T/C [24]: 0.14%; viability, T/C [25]: 11%; viability, T/C [26]: 2.34%; viability, T/C [27]: 1.63%; viability, T/C [28]: 1.21%; viability, T/C [29]: 0.17%; viability, T/C [30]: 0.23%
2 | Cn1ncnc1[C@H]1c2n[nH]c(=O)c3cc(F)cc(c23)N[C@@H]1c1ccc(F)cc1 + Cn1nnc2c(C(N)=O)ncn2c1=O | < 9.49 nM | < 9.49 nM | < 9.49 nM | < 9.49 nM | < 9.49 nM | 3.46% | 3.69% | 2.71% | 3.04% | 3.81% | 3.16% | 3.37% | 3.4% | 3.93% | 3.87% | 3.65% | 3.16% | 3.37% | 3.82% | 3.49% | viability, T/C [16]: 3.08%; viability, T/C [17]: 3.95%; viability, T/C [18]: 3.46%; viability, T/C [19]: 3.2%; viability, T/C [20]: 3.45%; viability, T/C [21]: 3.47%; viability, T/C [22]: 3.72%; viability, T/C [23]: 3.28%; viability, T/C [24]: 3.57%; viability, T/C [25]: 2.87%; viability, T/C [26]: 3.97%; viability, T/C [27]: 3.4%; viability, T/C [28]: 3.21%; viability, T/C [29]: 3.43%; viability, T/C [30]: 3.17%
